Assay results taken from the RepoRT retention time repository.

Assay: HILIC, Waters ACQUITY UPLC BEH Amide, 100 × 2.1 mm, 1.7 µm; A: water + 0.125% formic acid + 10 mM ammonium formate; B: 5% water + 95% acetonitrile + 0.125% formic acid + 10 mM ammonium formate; gradient (min/%B) 0/100 2/100 7.7/70 9.5/40 10.25/30 12.75/100 17/100
Settings: stereoisomer not certain

## NC(CCCC(N)C(=O)O)C(=O)O (stereo unspecified) [2,6-Diaminopimelic acid]
  LC retention time: 9.88 min

## COc1ccc2nc(S(=O)Cc3ncc(C)c(OC)c3C)[nH]c2c1 (stereo unspecified) [Esomeprazole]
  LC retention time: 1.35 min

## COC(=O)c1ccccc1C(=O)OC [Dimethyl phthalate]
  LC retention time: 1.04 min

## C[N+](C)(C)CC(O)CC(=O)[O-] (stereo unspecified) [Carnitine]
  LC retention time: 7.83 min

## COC(=O)N1CCN(C(=O)Cc2ccc(Cl)c(Cl)c2)C(CN2CCCC2)C1 (stereo unspecified)
  LC retention time: 2.56 min

## CN1CCN(CCCN2c3ccccc3Sc3ccc(C(F)(F)F)cc32)CC1 [Trifluoperazine]
  LC retention time: 2.15 min

## Nc1cc(CC(N)C(=O)O)ccc1O (stereo unspecified) [3-Aminotyrosine]
  LC retention time: 8.06 min

## OCC(O)C(O)C(OC1OC(CO)C(O)C(O)C1O)C(O)CO (stereo unspecified) [Lactitol]
  LC retention time: 8.99 min

## O=C(O)CCCCCO [6-Hydroxycaproic acid]
  LC retention time: 1.34 min

## COc1cc(N)c(Cl)cc1C(=O)NC1CN2CCC1CC2 (stereo unspecified) [Zacopride]
  LC retention time: 4.66 min

## CN(CCOc1ccc(NS(C)(=O)=O)cc1)CCc1ccc(NS(C)(=O)=O)cc1 [Dofetilide]
  LC retention time: 3.38 min

## CNC(C(=O)O)C(C)O (stereo unspecified) [N-Methylthreonine]
  LC retention time: 7.68 min

## Nc1ncnc2c1ncn2C1OC(CO)C(O)C1O (stereo unspecified) [Adenosine]
  LC retention time: 4.77 min

## CC12CCC(=O)C=C1CCC1C2C(=O)CC2(C)C1CCC2(O)C(=O)CO (stereo unspecified) [Cortisone]
  LC retention time: 1.29 min

## O=C1Nc2ccc(Cl)cc2C(c2ccccc2Cl)=NC1O (stereo unspecified) [Lorazepam]
  LC retention time: 1.33 min

## Cc1cn(C2OC(CO)C(O)C2O)c(=O)[nH]c1=O (stereo unspecified) [5-Methyluridine]
  LC retention time: 4.19 min

## Oc1ccc(C2COc3cc(O)ccc3C2)cc1 (stereo unspecified) [Equol]
  LC retention time: 1.19 min

## CC(C)(O)C1C2OC(=O)C1C1(O)CC3OC34C(=O)OC2C14C (stereo unspecified) [Picrotin]
  LC retention time: 1.21 min

## NC(CCSSCCC(N)C(=O)O)C(=O)O (stereo unspecified) [Homocystine]
  LC retention time: 9.58 min

## O=C1CCc2ccc(OCCCCN3CCN(c4cccc(Cl)c4Cl)CC3)cc2N1 [Aripiprazole]
  LC retention time: 3.14 min

## CC12CC(=O)C3C(CCC4=CC(=O)CCC43C)C1CCC2=O (stereo unspecified) [Adrenosterone]
  LC retention time: 1.1 min

## CC1OC(OC2C(CO)OC(OC3C(CO)OC(O)C(O)C3O)C(O)C2O)C(O)C(O)C1NC1C=C(CO)C(O)C(O)C1O (stereo unspecified) [Acarbose]
  LC retention time: 9.88 min

## Cc1ncc([N+](=O)[O-])n1CCO [Metronidazole]
  LC retention time: 1.17 min

## NC1CCN(c2cccc(Cl)n2)CC1
  LC retention time: 4.85 min

## O=C(CCCN1CCC(O)(c2ccc(Cl)cc2)CC1)c1ccc(F)cc1 [Haloperidol]
  LC retention time: 2.31 min

## Cn1nnc2c(C(N)=O)ncn2c1=O [Temozolomide]
  LC retention time: 1.33 min

## Oc1ccc(C2CNCCc3c2cc(O)c(O)c3Cl)cc1 (stereo unspecified) [Fenoldopam]
  LC retention time: 5.68 min

## OCC1OC(OC2C(O)OC(CO)C(O)C2O)C(O)C(O)C1O (stereo not drawn) [2-alpha-Mannobiose]
  LC retention time: 9.47 min

## NC(Cc1ccc(O)c(Cl)c1)C(=O)O (stereo unspecified) [3-Chlorotyrosine]
  LC retention time: 7.13 min

## CCCc1nc(C(C)(C)O)c(C(=O)O)n1Cc1ccc(-c2ccccc2-c2nn[nH]n2)cc1 [Olmesartan]
  LC retention time: 4.76 min

## COc1ccc2[nH]cc(CCO)c2c1 [5-Methoxytryptophol]
  LC retention time: 1.18 min

## Cc1[nH]c(=O)c(C#N)cc1-c1ccncc1 [Milrinone]
  LC retention time: 1.6 min

## O=c1cc[nH]c(=O)[nH]1 [Uracil]
  LC retention time: 2.4 min

## CCCCCC(O)C=CC=O (stereo unspecified) [4-Hydroxynonenal]
  LC retention time: 1.07 min

## O=C1C(c2c(O)[nH]c3ccccc23)=Nc2ccccc21 [Indarubicin]
  LC retention time: 1.07 min

## CC(=O)Nc1ccc(OC2OC(C(=O)O)C(O)C(O)C2O)cc1 (stereo unspecified) [Acetaminophen glucuronide]
  LC retention time: 7.73 min

## OCC1OCC(O)C(O)C1O (stereo unspecified) [1,5-Anhydrosorbitol]
  LC retention time: 0.92 min

## CNC1CCC(c2ccc(Cl)c(Cl)c2)c2ccccc21 (stereo unspecified) [Sertraline]
  LC retention time: 2.74 min

## CC(=O)Nc1ccccc1 [Acetanilide]
  LC retention time: 1.11 min

## CN1C(=O)CN=C(c2ccccc2)c2cc([N+](=O)[O-])ccc21 [Nimetazepam]
  LC retention time: 0.98 min

## COc1cc(-c2oc3cc(O)cc(O)c3c(=O)c2OC2OC(COC3OC(C)C(O)C(O)C3O)C(O)C(O)C2O)ccc1O (stereo unspecified) [Isorhamnetin-3-O-rutinoside]
  LC retention time: 6.02 min

## CC(C)C(=O)C(=O)O [Ketoisovaleric acid]
  LC retention time: 2.84 min

## O=c1ccn(C2OC(CO)C(O)C2O)c(=O)[nH]1 (stereo unspecified) [Uridine]
  LC retention time: 4.72 min

## CC(C)(C)NC(=O)C1CCC2C3CCC4NC(=O)C=CC4(C)C3CCC12C (stereo unspecified) [Finasteride]
  LC retention time: 1.17 min

## COc1ccc2[nH]cc(CCNC(C)=O)c2c1 [Melatonin]
  LC retention time: 1.24 min

## CC(c1cc2ccccc2s1)N(O)C(N)=O (stereo unspecified) [Zileuton]
  LC retention time: 1.23 min

## O=c1[nH]c(=O)c2nccnc2[nH]1 [Lumazine]
  LC retention time: 2.49 min

## CCOC(=O)C(CCc1ccccc1)NC1CCc2ccccc2N(CC(=O)O)C1=O (stereo unspecified) [Benazepril]
  LC retention time: 1.33 min

## OCC(O)C(O)CO (stereo unspecified) [Threitol]
  LC retention time: 1.56 min

## CC1(C)SC2C(N=CN3CCCCCC3)C(=O)N2C1C(=O)O (stereo unspecified) [Mecillinam]
  LC retention time: 4.28 min

## NCCCCNCCCN [Spermidine]
  LC retention time: 6.98 min

## CC(C)N=c1cc2n(-c3ccc(Cl)cc3)c3ccccc3nc-2cc1Nc1ccc(Cl)cc1 [Clofazimine]
  LC retention time: 1.78 min

## CN(CC(=O)O)C(=N)N [Creatine]
  LC retention time: 8.15 min

## CC(C)C(NC(=O)C(N)CCCN=C(N)N)C(=O)O (stereo unspecified) [Arg-Val]
  LC retention time: 9.3 min

## O=c1ccc2ccccc2o1 [Coumarin]
  LC retention time: 1.08 min

## CC(Cc1ccc(C(C)C(=O)O)cc1)C(=O)O (stereo unspecified) [Carboxyibuprofen]
  LC retention time: 1.11 min

## O=C(O)C1CCC(C(=O)O)CC1 (stereo unspecified) [1,4-Cyclohexanedicarboxylic acid]
  LC retention time: 1.56 min

## CN1C(=O)C(O)CC1c1cccnc1 (stereo not drawn) [trans-3'-Hydroxycotinine]
  LC retention time: 2.02 min

## CN1CCC23c4c5ccc(O)c4OC2C(=O)CCC3C1C5 (stereo unspecified) [Hydromorphone]
  LC retention time: 5.22 min

## CC(C)NCC(O)c1ccc(NS(C)(=O)=O)cc1 (stereo unspecified) [Sotalol]
  LC retention time: 4.87 min

## CC(=O)C1(O)CCC2C3CC(C)C4=CC(=O)CCC4(C)C3CCC21C (stereo unspecified) [Medroxyprogesterone]
  LC retention time: 1.01 min

## Nc1nc2ccc(Cl)cc2c2nc(-c3ccco3)nn12
  LC retention time: 1.07 min

## CC(C)CCCC(C)C1CCC2C3C(O)C=C4CC(O)CCC4(C)C3CCC12C (stereo not drawn) [5-Cholesten-3-beta-7-alpha-diol]
  LC retention time: 3.36 min

## CN1CCN(c2c(F)cc3c(=O)c(C(=O)O)cn4c3c2SCC4)CC1 [Rufloxacin]
  LC retention time: 4.65 min

## O=C(c1ccc(F)cc1)C1CCN(CCn2c(=S)[nH]c3ccccc3c2=O)CC1 [Altanserin]
  LC retention time: 2.64 min

## CCC(=O)NCC(=O)O [2-Propanamidoacetic acid]
  LC retention time: 5.37 min

## Nc1nc2ccc(OC(F)(F)F)cc2s1 [Riluzole]
  LC retention time: 1.03 min

## CC1CCN(CCCC(=O)c2ccc(F)cc2)CC1 [Melperone]
  LC retention time: 2.12 min

## CC(C)Oc1ccc2c(=O)c(-c3ccccc3)coc2c1 [Ipriflavone]
  LC retention time: 0.94 min

## Nc1nc2c(ncn2C2OC3COP(=O)(O)OC3C2O)c(=O)[nH]1 (stereo unspecified) [Guanosine-3',5'-cyclic monophosphate]
  LC retention time: 8.39 min

## O=C(O)C1CCCCN1 (stereo unspecified) [Pipecolic acid]
  LC retention time: 7.83 min

## O=C(O)c1ccc[nH]1 [Pyrrole-2-carboxylic acid]
  LC retention time: 5.66 min

## NC12CC3CC(CC(C3)C1)C2 [Amantadine]
  LC retention time: 4.88 min

## CC(=O)Nc1ccc2c(c1)Cc1ccccc1-2 [N-2-Fluorenylacetamide]
  LC retention time: 4.74 min

## CN(C)CCC(c1ccc(Br)cc1)c1ccccn1 (stereo unspecified) [Dexbrompheniramine]
  LC retention time: 2.56 min

## COCCCCC(=NOCCN)c1ccc(C(F)(F)F)cc1 [Fluvoxamine]
  LC retention time: 2.93 min

## COC1C=COC2(C)Oc3c(C)c(O)c4c(O)c(c5c(c4c3C2=O)=NC2(CCN(CC(C)C)CC2)N=5)NC(=O)C(C)=CC=CC(C)C(O)C(C)C(O)C(C)C(OC(C)=O)C1C (stereo unspecified) [Rifabutin]
  LC retention time: 2.76 min

## CCc1ccc(CCOc2ccc(CC3SC(=O)NC3=O)cc2)nc1 (stereo unspecified) [Pioglitazone]
  LC retention time: 1.11 min

## N=C1NC(=O)C(c2ccccc2)O1 (stereo unspecified) [Pemoline]
  LC retention time: 1.39 min

## CCN1CCN(c2cc3c(cc2F)c(=O)c(C(=O)O)cn3C2CC2)CC1 [Enrofloxacin]
  LC retention time: 3.31 min

## CNCC(O)c1ccc(O)cc1 (stereo unspecified) [Synephrine]
  LC retention time: 5.67 min

## CCCC(=O)OC(CC(=O)[O-])C[N+](C)(C)C [(R)-Butyrylcarnitine]
  LC retention time: 5.77 min

## CC(C)CC(N)C(=O)NC(CCCN=C(N)N)C(=O)O (stereo unspecified) [Leu-Arg]
  LC retention time: 8.86 min

## CN(CCCN1c2ccccc2CCc2ccccc21)CC(=O)c1ccc(Cl)cc1 [Lofepramine]
  LC retention time: 1.91 min

## CC12CCC(=O)C=C1CCC1C2CCC2(C)C1CCC2(C)O (stereo unspecified) [Methyltestosterone]
  LC retention time: 1.04 min

## COc1c2occc2cc2ccc(=O)oc12 [Xanthotoxin]
  LC retention time: 1.04 min

## Cn1c(NCCN(CCO)CCCc2ccc([N+](=O)[O-])cc2)cc(=O)n(C)c1=O [Nifekalant]
  LC retention time: 3.21 min

## NC(=O)N1c2ccccc2C=Cc2ccccc21 [Carbamazepine]
  LC retention time: 1.21 min

## CS(=O)(=O)c1ccc(C2=C(c3ccccc3)C(=O)OC2)cc1 [Rofecoxib]
  LC retention time: 0.97 min

## CC(=O)N[C@@H](CCC(N)=O)C(=O)O [N-Acetyl-L-glutamine]
  LC retention time: 8.18 min

## O=CCC(O)C(O)CO (stereo unspecified) [2-Deoxyribose]
  LC retention time: 1.42 min
